A short description of data set [1]: Water solubility (spectrophotometric, HPLC). Type of data set: physicochemical. The following applies: LAC-34 as free base. As for the experimental part:
(§1) Water solubility and dissociation constants were determined for the free base of LAC-34 using standard spectrophotometric, HPLC and potentiometric methods.

Data set [2] in a line: Dissociation constant (pKa), potentiometric. Type of data set: physicochemical. The following applies: LAC-34 as free base. As for the experimental part: as §1
For the next data set, the target named is T1, human NaV1.3 channels (Homo sapiens, UniProt Q9NY46).
T1 construct: expressed in transfected cells; host or cells: HEK-293
T1 sequence (Q9NY46 whole entry): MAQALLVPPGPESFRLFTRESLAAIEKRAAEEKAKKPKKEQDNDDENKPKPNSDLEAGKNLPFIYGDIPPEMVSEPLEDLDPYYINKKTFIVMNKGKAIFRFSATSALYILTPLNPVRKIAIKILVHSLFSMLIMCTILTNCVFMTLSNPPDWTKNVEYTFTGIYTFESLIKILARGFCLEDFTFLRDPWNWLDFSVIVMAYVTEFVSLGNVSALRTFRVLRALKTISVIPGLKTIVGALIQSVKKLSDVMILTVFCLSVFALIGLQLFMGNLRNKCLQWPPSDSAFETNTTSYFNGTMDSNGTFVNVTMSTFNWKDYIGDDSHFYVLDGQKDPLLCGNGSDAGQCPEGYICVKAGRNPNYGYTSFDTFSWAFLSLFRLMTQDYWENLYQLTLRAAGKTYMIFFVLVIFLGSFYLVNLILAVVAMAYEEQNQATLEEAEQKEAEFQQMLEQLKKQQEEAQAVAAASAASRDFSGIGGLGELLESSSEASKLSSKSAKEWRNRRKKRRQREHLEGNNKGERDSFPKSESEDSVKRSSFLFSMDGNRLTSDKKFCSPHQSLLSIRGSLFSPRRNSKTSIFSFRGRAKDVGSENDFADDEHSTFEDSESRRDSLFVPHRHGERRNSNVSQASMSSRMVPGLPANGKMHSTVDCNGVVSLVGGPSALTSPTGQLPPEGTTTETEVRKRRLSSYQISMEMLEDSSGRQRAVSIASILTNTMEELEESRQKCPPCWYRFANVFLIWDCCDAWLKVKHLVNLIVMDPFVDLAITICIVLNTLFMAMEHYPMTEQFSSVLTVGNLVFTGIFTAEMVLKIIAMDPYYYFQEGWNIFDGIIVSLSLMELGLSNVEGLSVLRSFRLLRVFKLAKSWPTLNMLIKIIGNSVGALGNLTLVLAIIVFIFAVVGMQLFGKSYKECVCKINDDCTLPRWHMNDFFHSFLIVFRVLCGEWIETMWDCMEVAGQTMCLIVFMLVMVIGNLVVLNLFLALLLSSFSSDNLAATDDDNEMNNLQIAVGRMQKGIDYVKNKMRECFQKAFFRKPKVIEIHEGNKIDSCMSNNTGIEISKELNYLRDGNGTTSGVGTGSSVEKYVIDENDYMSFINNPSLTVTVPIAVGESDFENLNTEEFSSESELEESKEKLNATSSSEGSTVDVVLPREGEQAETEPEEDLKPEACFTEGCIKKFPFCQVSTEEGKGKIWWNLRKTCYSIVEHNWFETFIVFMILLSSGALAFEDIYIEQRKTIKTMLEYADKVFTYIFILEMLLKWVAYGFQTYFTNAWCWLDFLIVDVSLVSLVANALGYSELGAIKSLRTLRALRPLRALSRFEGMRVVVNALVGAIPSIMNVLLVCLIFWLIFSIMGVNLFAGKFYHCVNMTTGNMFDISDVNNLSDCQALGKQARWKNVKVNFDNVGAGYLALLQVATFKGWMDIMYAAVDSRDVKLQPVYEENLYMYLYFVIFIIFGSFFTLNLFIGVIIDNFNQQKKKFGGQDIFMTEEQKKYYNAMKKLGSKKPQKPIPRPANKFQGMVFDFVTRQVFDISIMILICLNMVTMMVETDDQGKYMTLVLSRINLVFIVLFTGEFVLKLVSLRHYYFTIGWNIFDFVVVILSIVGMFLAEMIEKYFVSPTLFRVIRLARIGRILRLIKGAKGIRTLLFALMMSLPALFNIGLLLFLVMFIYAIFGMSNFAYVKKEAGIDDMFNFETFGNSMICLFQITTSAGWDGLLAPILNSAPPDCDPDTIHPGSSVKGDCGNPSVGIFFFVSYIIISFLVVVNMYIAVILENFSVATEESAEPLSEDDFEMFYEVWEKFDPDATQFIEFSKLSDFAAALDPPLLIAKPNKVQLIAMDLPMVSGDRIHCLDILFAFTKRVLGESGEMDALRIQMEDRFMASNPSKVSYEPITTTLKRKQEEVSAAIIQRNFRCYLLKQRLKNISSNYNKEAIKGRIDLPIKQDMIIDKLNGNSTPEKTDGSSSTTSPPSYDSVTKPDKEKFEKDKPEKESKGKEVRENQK
The experiment in a line: NaV1.3 electrophysiology (patch clamp) in HEK-293 cells. Type of data set: cell-based. In general terms: Patch clamp records ionic current or voltage across a cell membrane.

The nature of data set [3]: Screening of excipients for their capability to dissolve LAC-34 free base at room temperature. The class given is physicochemical. The following applies: 22 °C, thermodynamic from solid. As for the experimental part: (§2) HPLC analytical methodology was developed, using LAC-34 free base at room temperature (21-23° C.). A liquid's ability to dissolve LAC-34 was screened by adding a known mass of LAC-34 to a known volume/mass of liquid. Saturation solubility was measured by adding an excess of drug substance and allowing the suspension to equilibrate while stirring for 2-3 days. Four solutions of different concentrations of LAC-34 (8.1 mcg/mL to 0.98 mg/mL) plus a blank were typically tested in triplicate. Excellent linearity of the recovery was obtained over […] in LAC-34 concentrations and the relative standard deviations of peak areas for all LAC-34 solutions were less than 0.5%.
Various excipients were tested for their capability to dissolve LAC-34, free base.

A short description of data set [4]: Physical state of LAC-34 in solvents when tested at 4° C. Type of data set: physicochemical. As for the experimental part:
When tested at 4° C., 20% LAC-34 in benzyl alcohol was a solution, 5% LAC-34 in propylene glycol was a gel, 5% LAC-34 in isopropyl myristate was a suspension, 5% LAC-34 in isopropyl palmitate was a solid, 5% LAC-34 in isopropyl alcohol was a suspension and cetyl alcohol was a solid (melting point=49.3° C.)

The nature of data set [5]: Saturation solubility of LAC-34 free base in selected solvents (HPLC). The class given is physicochemical. The following applies: 22 °C, thermodynamic from solid. The protocol:
as §2
The saturation solubility of LAC-34 was measured in capric/caprylic triglycerides (CCT), dimethylsulfoxide (DMSO), ethanol, isopropanol, isopropyl myristate (IPM), pentane, propylene glycol (PG), and water. CCT and IPM were selected for further work since they can function as emollients and oily vehicles in creams. DMSO is a solvent and a penetration enhancer. Ethanol and isopropanol are volatile solvents and rapid evaporation of a solvent like ethanol and isopropyl alcohol may be important for minimizing therapeutic onset time. Propylene glycol has multiple functions in dermal formulations, the most important of which are solubilization and penetration enhancement.
The analytical HPLC method described in Example 1 was used.
All of the solvents, with the exception of water, were able to dissolve large quantities of LAC-34. LAC-34, as the free base, was very soluble also in DMSO. Both IPM and CCT, which are semi-polar emollient oils, had also high solubilization capacity for LAC-34. Propylene glycol (PG), which has multiple actions for dermal drug delivery (see Table 1), was also able to solubilize significant quantities of LAC-34. […] After observing this phenomenon with ethanol, 0.125 g of isopropanol was added to 0.25 g of LAC-34. […] This was approximately 526 mg/mL.

Data set [6] can be described thus: Solubility of LAC-34 in binary mixtures of solvent and water (anti-solvent). The class given is physicochemical. As for the experimental part:
Due to the very high solubility of LAC-34 free base in numerous volatile solvents, it was determined to be necessary to find and add an anti-solvent in order to reach saturation of the solutions of LAC-34. The efficacy of water is an anti-solvent for LAC-34 free base was investigated in the present studies.

Data set [7] is described as follows: Ternary solubility studies: PG/ethanol solutions titrated with water until cloudy. Type of data set: physicochemical. As for the experimental part:
Therefore, several solutions were made where PG would be saturated or almost saturated with LAC-34 (i.e., […]). A quantity of ethanol was added to act at the volatile solvent. Each solution was titrated with water until it became cloudy. As with other titrations with water, the LAC-34 appeared to come out of solution as a liquid (oil) rather than a solid.

For data set [8], the system named is batrachotoxin-sensitive Na+ channel (site 2). Kind of data set: [3H]batrachotoxin binding to Na+ channels (site 2). More on the design: species or system rat.
In another data set the target is T2, human NaV1.5 channels (Homo sapiens, UniProt Q14524).
T2 construct: expressed in transfected cells; host or cells: HEK-293
T2 sequence (Q14524 whole entry): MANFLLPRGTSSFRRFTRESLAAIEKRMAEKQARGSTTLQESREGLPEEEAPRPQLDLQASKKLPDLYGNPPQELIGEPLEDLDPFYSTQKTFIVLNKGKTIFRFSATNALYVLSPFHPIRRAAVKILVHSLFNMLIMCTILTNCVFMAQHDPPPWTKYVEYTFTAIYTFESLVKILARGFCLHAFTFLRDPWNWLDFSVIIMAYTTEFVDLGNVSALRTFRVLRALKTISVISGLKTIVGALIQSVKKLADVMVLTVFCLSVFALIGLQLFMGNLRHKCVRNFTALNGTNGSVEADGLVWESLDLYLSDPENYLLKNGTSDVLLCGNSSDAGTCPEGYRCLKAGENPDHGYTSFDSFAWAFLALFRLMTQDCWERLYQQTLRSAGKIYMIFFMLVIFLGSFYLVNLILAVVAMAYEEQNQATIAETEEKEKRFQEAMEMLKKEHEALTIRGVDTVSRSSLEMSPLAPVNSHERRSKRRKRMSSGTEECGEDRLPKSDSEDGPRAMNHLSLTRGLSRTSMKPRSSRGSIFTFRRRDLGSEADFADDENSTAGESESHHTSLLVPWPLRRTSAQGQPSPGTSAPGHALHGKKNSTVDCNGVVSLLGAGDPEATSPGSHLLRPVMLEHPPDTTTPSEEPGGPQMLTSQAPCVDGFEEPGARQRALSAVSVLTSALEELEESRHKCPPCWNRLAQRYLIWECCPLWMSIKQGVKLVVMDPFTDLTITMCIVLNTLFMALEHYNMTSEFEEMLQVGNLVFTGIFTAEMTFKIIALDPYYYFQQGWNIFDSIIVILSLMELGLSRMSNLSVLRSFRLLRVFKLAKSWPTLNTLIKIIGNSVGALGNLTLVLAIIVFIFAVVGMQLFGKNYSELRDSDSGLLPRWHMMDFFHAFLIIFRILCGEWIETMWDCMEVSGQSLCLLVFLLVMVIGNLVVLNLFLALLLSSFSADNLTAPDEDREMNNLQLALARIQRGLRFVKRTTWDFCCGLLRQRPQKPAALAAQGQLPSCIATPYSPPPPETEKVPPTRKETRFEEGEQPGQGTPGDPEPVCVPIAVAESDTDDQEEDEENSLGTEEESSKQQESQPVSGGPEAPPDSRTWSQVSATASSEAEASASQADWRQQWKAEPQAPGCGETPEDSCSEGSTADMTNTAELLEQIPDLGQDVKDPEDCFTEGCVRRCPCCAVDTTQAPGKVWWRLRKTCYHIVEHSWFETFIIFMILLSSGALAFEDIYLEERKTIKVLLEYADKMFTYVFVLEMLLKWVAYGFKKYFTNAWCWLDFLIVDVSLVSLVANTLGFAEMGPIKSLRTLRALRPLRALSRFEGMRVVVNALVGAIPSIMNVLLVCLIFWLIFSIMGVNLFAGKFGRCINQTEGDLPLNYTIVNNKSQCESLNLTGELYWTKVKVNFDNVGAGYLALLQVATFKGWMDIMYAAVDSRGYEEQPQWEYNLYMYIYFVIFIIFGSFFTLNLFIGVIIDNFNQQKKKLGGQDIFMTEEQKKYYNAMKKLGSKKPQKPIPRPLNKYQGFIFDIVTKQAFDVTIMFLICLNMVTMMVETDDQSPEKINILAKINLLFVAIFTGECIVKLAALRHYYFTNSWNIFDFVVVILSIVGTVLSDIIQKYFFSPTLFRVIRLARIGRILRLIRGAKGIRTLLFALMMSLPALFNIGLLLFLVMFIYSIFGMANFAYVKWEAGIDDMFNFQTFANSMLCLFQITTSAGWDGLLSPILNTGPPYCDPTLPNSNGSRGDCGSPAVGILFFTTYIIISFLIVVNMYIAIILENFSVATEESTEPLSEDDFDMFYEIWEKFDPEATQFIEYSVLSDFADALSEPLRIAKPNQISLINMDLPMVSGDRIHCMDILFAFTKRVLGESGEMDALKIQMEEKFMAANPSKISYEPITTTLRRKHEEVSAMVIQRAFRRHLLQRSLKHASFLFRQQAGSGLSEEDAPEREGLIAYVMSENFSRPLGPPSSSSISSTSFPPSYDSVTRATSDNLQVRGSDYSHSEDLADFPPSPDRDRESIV
The experiment in a line: NaV1.5 electrophysiology (patch clamp) in HEK-293 cells. The class given is cell-based.

In a further data set the test system is guinea pigs. The experiment in a line: Dermal anesthesia after dermal application, pinprick method. The class given is in vivo, guinea pig. The conditions noted are these: for Average Anesthetic Score: 2.0 ml of 5.0% solution in DMSO/water, 30 min occluded, maximal score 6. The protocol:
The purpose of this study was to determine the efficacy of the free base and pharmaceutically acceptable salt forms of LAC-34 as dermal anesthetics, following dermal application of the compounds to guinea pigs. The Duration of Anesthesia is directly related to the Dermal Residence Times of the test articles.
Four groups of six male guinea pigs received a dose of 2.0 ml of a 5.0% solution of four test articles (LAC-34 base, LAC-34 mono-HCl salt, LAC-34 di-HCl salt and LAC-34 mesylate salt) that had been applied onto a two-inch square, 4-layer thick gauze pad on depilated dorsal skin of each guinea pig. Similarly, one group of guinea pigs received the vehicle, which consisted of DMSO/water and served as the control group. The gauze was occluded and the guinea pigs were wrapped for 30 min. Animals were assessed for initial pain reaction (anesthetic depth) at 15-minute intervals up to 3 hours and at 24 hours. An algesimeter, set at 10 g, was employed to assess the onset and depth of anesthesia using the pinprick method causing a twitch response or non-response. The “Average Anesthetic Score” was defined as number of probings not producing a dermal twitch response. Thus, a situation where there were no dermal twitch responses to six probings represent a maximal anesthetic effect and is denoted as an Average Anesthetic Score of 6. Duration of Anesthesia was in this study defined as the time from patch removal until the test scores have regressed to an average anesthetic score below 2.0. The Duration of Anesthesia in this type of experiments is directly related the duration of Dermal Residency for the test articles.

The values that follow come from patent US20110218218A1, “Formulations Of Indanylamines And The Use Thereof As Local Anesthetics And As Medication For Chronic Pain” (BRIDGE PHARMA, INC., priority 2005, published 2011).

Molecules are shown by their SMILES. Converted amounts (≈) assume the structure as drawn.

As a reminder, the solubility is how much of the substance goes into solution per volume. As a reminder, the pKa is the negative logarithm of the acid dissociation constant. Low values mean a group that gives up its proton readily, high ones a group that holds its proton tightly. `CCCCNc1ccc(C(=O)OCCN(C)C)cc1` [Tetracaine, reference compound] returned a solubility in data set [1] of 0.356 mg/mL (≈ 1.35 mM). The pKa in [2] amounted to 8.51 ± 0.12.

As usually defined, the inhibition is the share of the control response that was lost under treatment. For `CCN(CC)CC(=O)Nc1c(C)cccc1C` [Lidocaine, reference compound], on human NaV1.3 channels (HEK293, read-out: inhibition of NaV1.3 channels), the inhibition at 2000 µM turned out to be 70%.

One may read the IC50 as the midpoint of a concentration-inhibition curve. As for `c1ccc(N(CCC2CCCCN2)C2Cc3ccccc3C2)cc1` (racemic) [LAC-34, 2-[2-(N-Phenyl-N-2-indanyl)aminoethyl]piperidine], the solubility in data set [3] (oil or lipid, in isopropyl myristate) was greater than 78 mg/mL; in data set [3] (oil or lipid, in isopropyl palmitate), 50 to 100 mg/mL (≈ 156 to 312 mM); in data set [3] (oil or lipid, in mineral oil), less than 50 mg/mL; in data set [3] (organic solvent or mixture, in benzyl alcohol), greater than 100 mg/mL; in data set [3] (organic solvent or mixture, in dibutyl adipate), greater than 79 mg/mL; in data set [3] (organic solvent or mixture, in ethanol), greater than 86 mg/mL. The solubility was greater than 75 mg/mL in data set [3] (organic solvent or mixture, in hexylene glycol); greater than 79 mg/mL in data set [3] (organic solvent or mixture, in isopropyl alcohol); greater than 78 mg/mL in data set [3] (organic solvent or mixture, in propylene carbonate); greater than 76 mg/mL in data set [3] (organic solvent or mixture, in propylene glycol); 195 mg/mL (≈ 608 mM) in data set [5] (capric/caprylic triglycerides (CCT), oil or lipid, in capric/caprylic triglycerides (CCT)); 215 mg/mL (≈ 671 mM) in data set [5] (dimethylsulfoxide (DMSO), organic solvent or mixture, in dimethylsulfoxide (DMSO)). In addition, the solubility in data set [5] (ethanol, organic solvent or mixture, in ethanol (never saturated)) is greater than 2000 mg/mL; in data set [5] (isopropyl myristate (IPM), oil or lipid, in isopropyl myristate (IPM)) it was 184 mg/mL (≈ 574 mM); in data set [5] (pentane, organic solvent or mixture, in pentane, value uncertain, pentane evaporates rapidly), 150 mg/mL (≈ 468 mM); in data set [5] (propylene glycol (PG), organic solvent or mixture, in propylene glycol (PG)), 149 mg/mL (≈ 465 mM); in data set [5] (water, in water), 0.005 mg/mL (≈ 0.0156 mM); in data set [6] (DMSO with 5% water, organic solvent or mixture, DMSO, 5% water, previous tests) it was no less than 100 mg/mL. The solubility came to 1.7 mg/mL (≈ 5.3 mM) in [6] (DMSO with 50% water, aqueous with cosolvent or surfactant or cyclodextrin, DMSO, 50% water, read-out: Solubility of LAC-34 in mixture of solvent and water); 0.45 mg/mL (≈ 1.4 mM) in data set [6] (DMSO with 90% water, aqueous with cosolvent or surfactant or cyclodextrin, DMSO, 90% water, read-out: Solubility of LAC-34 in mixture of solvent and water); 215 mg/mL (≈ 671 mM) in data set [6] (DMSO, 0% water, organic solvent or mixture); 63 mg/mL (≈ 197 mM) in [6] (ethanol with 15% water, organic solvent or mixture, kinetic from dmso stock, ethanol, 15% water, titrated from an ethanol/LAC-34 solution with water); 33 mg/mL (≈ 103 mM) in [6] (ethanol with 20% water, organic solvent or mixture, kinetic from dmso stock, ethanol, 20% water, titrated from an ethanol/LAC-34 solution with water); 7 mg/mL (≈ 21.8 mM) in [6] (ethanol with 30% water, organic solvent or mixture, kinetic from dmso stock, ethanol, 30% water, titrated from an ethanol/LAC-34 solution with water). The solubility was greater than 2000 mg/mL in [6] (ethanol, 0% water, organic solvent or mixture); 139 mg/mL (≈ 434 mM) in data set [6] (propylene glycol with 1% water, organic solvent or mixture, PG, 1% water); 104 mg/mL (≈ 325 mM) in data set [6] (propylene glycol with 2.5% water, organic solvent or mixture, PG, 2.5% water); 63 mg/mL (≈ 197 mM) in [6] (propylene glycol with 5% water, organic solvent or mixture, PG, 5% water); 29 mg/mL (≈ 90.5 mM) in data set [6] (propylene glycol with 10% water, organic solvent or mixture, PG, 10% water); 8.7 mg/mL (≈ 27.1 mM) in data set [6] (propylene glycol with 20% water, organic solvent or mixture, PG, 20% water). In addition, the solubility in [6] (propylene glycol with 50% water, aqueous with cosolvent or surfactant or cyclodextrin, PG, 50% water, read-out: Solubility of LAC-34 in mixture of solvent and water) came to 0.37 mg/mL (≈ 1.15 mM); in [6] (propylene glycol with 75% water, aqueous with cosolvent or surfactant or cyclodextrin, PG, 75% water, read-out: Solubility of LAC-34 in mixture of solvent and water) it was 0.075 mg/mL (≈ 0.234 mM); in data set [6] (propylene glycol, organic solvent or mixture, PG, 0% water) it was 149 mg/mL (≈ 465 mM); in data set [1], 0.005 mg/mL (≈ 0.0156 mM). The “Physical state at 4° C.” value in data set [4] (5% LAC-34 in isopropyl alcohol) is given as “suspension”; in data set [4] (5% LAC-34 in isopropyl myristate), “suspension”; in [4] (5% LAC-34 in isopropyl palmitate) it was “solid”; in data set [4] (5% LAC-34 in propylene glycol) it was “gel”; in data set [4] (20% LAC-34 in benzyl alcohol) it was “solution”. The “Saturation Concentration of LAC-34” value in data set [7] (0.150 g LAC-34, 1.0 g PG, 0.5 g ethanol, 0.317 g water titrated) is 7.6 % w/w; in data set [7] (0.150 g LAC-34, 1.0 g PG, 1.0 g ethanol, 0.601 g water titrated) it was 5.4 % w/w; in data set [7] (0.200 g LAC-34, 1.0 g PG, 3.0 g ethanol, 1.880 g water titrated), 3.3 % w/w. The “Potency relative to lidocaine, batrachotoxin-sensitive Na-channels” value in data set [8] (calculated from IC50 values) is “approximately 210 times”. Besides, the IC50 in data set [8] (rat cerebral cortex, 10 nM ligand, 60 min/22° C., read-out: IC50, inhibition of [3H]batrachotoxin specific binding) is 0.247 µM; at human NaV1.3 channels (HEK-293 cells, patch clamp), 4 µM; against human NaV1.5 channels it was 0.6 µM. Further, the “Potency relative to lidocaine, NaV1.3 channels” value on human NaV1.3 channels (calculated) is reported as “more than 200 times”. The “Potency relative to lidocaine, NaV1.5 channels” value at human NaV1.5 channels (calculated) is “about 500 times”. Moreover, the “Average Anesthetic Score” value with guinea pigs (15 min after patch removal) was determined as 4.8; with guinea pigs (30 min after patch removal), 4.8; in the data set on guinea pigs (60 min after patch removal) it was 4.4; in the data set on guinea pigs (90 min after patch removal), 3.3; with guinea pigs (180 min after patch removal), 2.2. For the same molecule, in the data set on guinea pigs (highest Average Anesthetic Score after patch removal, 5.0% solution), the “Maximal Depth of Anesthesia” value is 4.8. Also, the “Duration of Anesthesia” value in the data set with guinea pigs (time from patch removal until average anesthetic score below 2.0, 5.0% solution) was determined as 180 min. The pKa in [2] turned out to be 8.09 ± 0.23.
